Reference: patent EP1043336A2, “Stereospecific antibodies for imidazolinone herbicides” (The Regents of the University of California, priority 1999, dated 2000)
pKd: −log10 of the molar value.

What was measured:
Type in all cases: binding, mouse
[1] = system: panel of monoclonal antibodies (MAbs); assay: Detection of imidazolinones by the panel of MAbs (EIA)
Procedure: EIAs were done essentially as described by Karu et al (1994). For indirect EIAs, hapten-protein conjugates were adsorbed to wells of Immulon 2™ 96-well plates (Dynatech) in 0.1 mL of coating buffer (0.015 M Na2CO3 ― 0.035 M NaHCO3 ―0.003 M NaN3, pH 9.6). PBS-Tween containing 0.05% gelatin, 0.45 micron-filtered, was used as the diluent for antibodies and antibody-analyte mixtures, and as a blocking solution to prevent adventitious binding. The detecting antibody for the indirect EIAs was alkaline phosphatase conjugated goat anti-mouse IgG and IgM The substrate solution for color development was p-nitrophenyl phosphate 1 mg/mL, in 10% (w/v) diethanolamine-HCl, pH 9.8 ― 0.5 mM MgCl2 ― 3 mM NaN3. • 1. Indirect competition EIA. Indirect competition EIA (immobilized hapten conjugate) was used to evaluate the responses of mice, screen the MAbs, and quantify imidazolinone analytes. Optimal amounts of imidazolinone-BSA or -OVA conjugate for plate coating and dilutions for the hybridoma culture supernate or antiserum were determined by checkerboard assay. To perform the assay, wells were coated overnight at 4°C with a limiting amount of conjugate in 0.1 mL of coating buffer. Imidazolinone standards (0.5 to 5000 ppb) or unknowns were mixed with a limiting amount of antiserum or hybridoma culture fluid in the diluent and incubated overnight at 4°C in tightly sealed polypropylene tubes. The coated wells were washed and blocked with 0.2 mL of 0.05% gelatin in PBS-Tween for 30 minutes at room temperature. After another wash, aliquots (0.1 mL) of the antibody-analyte mixture were added to wells, and the remainder of the assay was performed as previously described (Karu et al., 1994). • 2. Direct competition EIA. Direct EIAs were performed by capturing the MAb on microwells and allowing the analyte to compete with a HRP-conjugated hapten for binding. Bound HRP-conjugate was then detected with a commercial HRP substrate. The sensitivity of this assay was enhanced by use of a commercial enzymatic signal amplification kit (GIBCO-BRL). Wells were coated with 200 or 500 ng of affinity-purified goat anti-mouse IgG or anti-mouse IgG Fc in the coating buffer at 4°C overnight. The next day, the wells were washed and blocked with PBS-Tween-gelatin for 30 minutes at room temperature, and then incubated for 1.5 hours at room temperature with hybridoma culture supernate. The plates were washed with PBS-Tween, and 0.1 mL of diluent containing the analyte and a limiting amount of biotinylated imidazolinone was added for 1.5 h at room temperature. The wells were washed three times with PBS-Tween, and Extravidin-alkaline phosphatase conjugate (Sigma) was then added for 30 minutes at room temperature. The plates were washed again with TBS (0.05 M Tris-HCl, pH 7.5,― 0.15 M NaCl) to remove remaining inorganic phosphate, which can inhibit the GIBCO-BRL EIA Amplification system. Substrate solution for the amplification step (0.05 mL) was added for 15 minutes at room temperature, followed by 0.05 mL of the enzymatic amplifying solution and chromogen. Color development at 492 nm was recorded. • 3. EIA Data Analysis. Color development was monitored on a Multiskan EIA reader (Flow Laboratories) interfaced with a Macintosh computer, and the rates of the reaction were calculated by linear regression. Competition EIA dose- response curves were fitted with a 4-parameter logistic equation (Karu et al., 1994).

MAb 3A2 [2] = assay: BIAcore surface plasmon resonance, equilibrium dissociation constant; settings: racemic hapten conjugate
Procedure: (§1) 1. Binding Kinetics. The equilibrium dissociation constants (KD) for MAbs 3A2 and 3A5 were measured by kinetic exclusion fluoroimmunoassay (KinExA) (Blake, D. A., et al. 1997. Characterization of a metal-specific monoclonal antibody. In: Immunochemical Technology for Environmental Applications (ACS Symposium Series 657), eds. DS Aga, EM Thurmann, pp. 49-60. Washington, D.C.: American Chemical Society.), and also in a Pharmacia BIAcore surface plasmon resonance instrument (Malmborg, A.-C. and Borrebaeck, C. A. K. 1995. BIAcore as a tool in antibody engineering. J. Immunol. Methods 183: 7-13.). Since the hapten conjugates used in these rate studies were racemic mixtures, the dissociation constants obtained can only be a median rate for the different chiral isomers.
(§2) The KinExA directly measures free antibody in solution equilibrium by trapping it on beads coated with hapten conjugate. […] 2. […] 4.

[3] = molecular target: MAb 3A5 (VH and VL N-termini SEQ.ID NOS. 1 and 2); assay: as above; settings: racemic hapten conjugate
Procedure: as §1, §2

MAb 3A2 [4] = assay: Kinetic exclusion fluoroimmunoassay (KinExA), equilibrium dissociation constant; settings: hapten conjugate 16-BSA, racemic hapten conjugate
Procedure: as §1, §2

[5] = molecular target: MAb 3A5 (VH and VL N-termini SEQ.ID NOS. 1 and 2); assay: as above; settings: hapten conjugate 16-BSA, racemic hapten conjugate
Procedure: as §1, §2

## CCc1cnc(C2=NC(C)(C(C)C)C(=O)N2)c(C(=O)O)c1 (stereo not shown) [imazethapyr, 5-ethyl-2-(4-isopropyl-4-methyl-5-oxo-2-imidazolin-2-yl) nicotinic acid]
[1]
  detection range: 3 to 30 ng/mL
MAb 3A2 [2]; hapten conjugate 16-OA
  pKd: 7.61
MAb 3A2 [2]; hapten conjugate 17-OA
  pKd: 7.29
[3]; hapten conjugate 16-OA
  pKd: 8.02
[3]; hapten conjugate 17-OA
  pKd: 7.97
MAb 3A2 [4]
  pKd: 7.94
[5]
  pKd: 7.14
